Reference: patent US20050113397A1, “Imidazo[1,2-a]pyridine derivative” (priority 2002, published 2005)
Values after ≈ are worked out from the molar mass of the structure shown.

Columns and labels:
Experiment in all cases: Antifungal activity (MIC), US NCCLS Standard Method M27-A, yeasts
Format in all cases: cell-based
Candida krusei = conditions: for MIC: Pichia kudriavzevii, read-out: MIC (minimal inhibitory concentration for growth)
Method: (§1) The antifungal activity of the compound of the invention was determined according to the US NCCLS Standard Method (M27-A, 1997) against yeasts (Candida, Cryptococcus); and according to the US NCCLS Standard Method (M38-P, 1998) against molds (Aspergillus). The result is expressed in values of MIC (minimal inhibitory concentration for growth, μg/ml) in Table 7.

Candida glabrata = conditions: for MIC: Nakaseomyces glabratus, read-out: MIC (minimal inhibitory concentration for growth)
Method: as §1

Saccharomyces cerevisiae = conditions: for MIC: read-out: MIC (minimal inhibitory concentration for growth)
Method: as §1

Row | Compound | MIC (minimal inhibitory concentration for growth) (Candida krusei) [µg/mL] | MIC (minimal inhibitory concentration for growth) (Candida glabrata) [µg/mL] | MIC (minimal inhibitory concentration for growth) (Saccharomyces cerevisiae) [µg/mL] | MIC (Candida krusei) [µg/mL] | MIC (Candida glabrata) [µg/mL] | MIC (Saccharomyces cerevisiae) [µg/mL]
1 | Cc1c(-c2ccccc2)c(N2CC[C@H](N(C)C)C2)n2c(nc3ccccc32)c1C#N.O=CO [Example 6] | 0.5 | <0.063 | <0.063 | – | – | –
2 | CCc1c(C)c(C#N)c2nc3ccccc3n2c1C1=CC(N)CC1 (stereo not drawn) [Example 95, 1-(3-Amino-1-cyclopenten-1-yl)-2-ethyl-3-methylpyrido[1,2-a]benzimidazole-4-carbonitrile] | – | – | – | 64 (≈ 202 µM) | 32 (≈ 101 µM) | 16 (≈ 50.6 µM)
3 | CCc1c(C)c(C#N)c2nc3ccccc3n2c1NCCN(CC)CC [Example 1, 1-(2-N′,N′-Diethylaminoethylamino)-2-ethyl-3-methylpyrido[1,2-a]benzimidazole-4-carbonitrile] | 8 | 2 | 16 | – | – | –
4 | CCCCCCc1c(C)c(C#N)c2nc3ccccc3n2c1N1CCCN(C)CC1 [Example 12, 2-n-Hexyl-1-(4-methylhomopiperazin-1-yl)-3-methylpyrido[1,2-a]benzimidazole-4-carbonitrile] | – | – | – | > 128 | 128 (≈ 317 µM) | > 32

More lines, now with the values ahead:

Row | MIC (minimal inhibitory concentration for growth) (Candida krusei) [µg/mL] | MIC (minimal inhibitory concentration for growth) (Candida glabrata) [µg/mL] | MIC (minimal inhibitory concentration for growth) (Saccharomyces cerevisiae) [µg/mL] | MIC (Candida krusei) [µg/mL] | MIC (Candida glabrata) [µg/mL] | MIC (Saccharomyces cerevisiae) [µg/mL] | Compound
5 | >128 | 16 | 64 | – | – | – | Cc1c(Cc2cccc(N)c2)c(N2CC[C@H](N(C)C)C2)n2c(nc3ccccc32)c1C#N [Example 60, 2-(3-Aminobenzyl)-1-[(3S)-dimethylaminopyrrolidinyl]-3-methylpyrido[1,2-a]benzimidazole-4-carbonitrile]
6 | 8 | 1 | 2 | – | – | – | Cc1c(C(C)C)c(N2CC[C@H](N(C)C)C2)n2c(nc3ccccc32)c1C#N [Example 87, 2-Isopropyl-1-[(3S)-dimethylaminopyrrolidin-1-yl]-3-methylpyrido[1,2-a]benzimidazole-4-carbonitrile]
7 | 16 | 32 | 16 | – | – | – | Cc1c(CCO)c(N2CC[C@H](N(C)C)C2)n2c(nc3ccccc32)c1C#N [Example 66, 1-[(3S)-dimethylaminopyrrolidin-1-yl]-2-(2-hydroxyethyl)-3-methylpyrido[1,2-a]benzimidazole-4-carbonitrile]
8 | – | – | – | 32 (≈ 79.3 µM) | 16 (≈ 39.6 µM) | 2 (≈ 4.96 µM) | CCCCCCc1c(C)c(C#N)c2nc3ccccc3n2c1N1CC(CN(C)C)C1 [Example 11, 2-n-Hexyl-1-[3-(dimethylaminomethyl)azetidin-1-yl]-3-methylpyrido[1,2-a]benzimidazole-4-carbonitrile]
